Like-named read-outs stand apart in the source and are kept apart here.
What was measured:
Assay type in all cases: cell-based
[1] = tested on: human melanoma cells Mewo (with wild-type B-Raf); assay: In vitro cell proliferation assay, Mewo; details: 72 hours, cellular ATP monitoring
Experimental: (§1) Exponentially growing human melanoma cells A375 (with a mutated B-RAF) and human melanoma cells Mewo (with wild-type B-Raf) were seeded and incubated at 37° C. in a humidified 5% CO2 atmosphere. After 24 hours, scalar doses of the compound were added to the medium and cells oncubated for 72 hours. At the end of treatment, cells were washed and counted. Cell number was determined by a cellular adenosine triphosphate monitoring system. Cell proliferation was compared to control cells and the concentration inhibiting cell growth by 50% was calculated.

[2] = tested on: human melanoma cells A375 (with a mutated B-RAF); assay: In vitro cell proliferation assay, A375; details: A-375, 72 hours, cellular ATP monitoring
Experimental: as §1

[3] = tested on: p-MAPK (T202/Y204) in A375 human melanoma cells, having a mutated B-RAF; assay: p-MAPK (T202/Y204) ArrayScan assay
Experimental: A375 human melanoma cells, having a mutated B-RAF, are seeded in 384-well poly-lysine coated plates (Matrix) at a density of 1000 cells/well with appropriate medium supplemented with 10% FCS and incubated for 16-24 hours. Cells are treated for 1.5 or 2 hours with increasing doses of compounds (starting dose 10 μM, dilution factor 2.5). At the end of the treatment cells are fixed with p-formaldehyde 3.7% for 15-30 min, then washed twice with D-PBS ([…]) and permeabilized with D-PBS containing 0.1% Triton X-100 and 1% BSA (Sigma-Aldrich) for 15 minutes at room temperature (staining solution). […] After removal of antibody solution, the anti-mouse Cy™2-conjugated (Green) secondary antibody (Amersham) diluted 1:500 in staining solution containing […] DAPI is added. The plate is incubated for 1 hour at 37° C., washed twice and red with Cellomics' ArrayScan VTI (4 fields/well, CytoNucTrans algorithm).
The parameter “MEAN_RingAvgIntenCh2”, which measures the mean cytoplasmatic fluorescence intensity associated to p-MAPK staining, is reported as the final result.

[4] = A-375, A375 cells treated 1.5 or 2 hours, p-MAPK staining, MEAN_RingAvgIntenCh2, read-out: Array Scan A375 IC50
[5] = A-375, read-out: Array Scan A375 IC50

| Compound | IC50 [1] | IC50 [2] | IC50 [3, 4] | IC50 [3, 5] |
| --- | --- | --- | --- | --- |
| O=C(Nc1ccc(Cl)cc1)Nc1cccc(-c2nn3c(c2-c2ccncc2)SCCC3)c1 [compound 1, 1-(4-chloro-phenyl)-3-[3-(3-pyridin-4-yl-6,7-dihydro-5H-pyrazolo[5,1-b][1,3]thiazin-2-yl)-phenyl]-urea] | 3.59 µM | 2.48 µM | 7.37 µM | – |
| Cc1ccc(NC(=O)Nc2cccc(-c3nn4c(c3-c3ccncc3)SCCC4)c2)cc1 [compound 2, 1-[3-(3-pyridin-4-yl-6,7-dihydro-5H-pyrazolo[5,1-b][1,3]thiazin-2-yl)-phenyl]-3-p-tolyl-urea] | 7.25 µM | 3.69 µM | 5.57 µM | – |
| O=C(Nc1ccc(C(F)(F)F)cc1)Nc1cccc(-c2nn3c(c2-c2ccncc2)SCCC3)c1 [compound 3, 1-[3-(3-pyridin-4-yl-6,7-dihydro-5H-pyrazolo[5,1-b][1,3]thiazin-2-yl)-phenyl]-3-(4-trifluoromethyl-phenyl)-urea] | 2.54 µM | 0.91 µM | 0.77 µM | – |
| O=S(=O)(Nc1cccc(-c2nn3c(c2-c2ccncc2)SCCC3)c1)c1cccc(F)c1 [compound 4, 3-fluoro-N-[3-(3-pyridin-4-yl-6,7-dihydro-5H-pyrazolo[5,1-b][1,3]thiazin-2-yl)-phenyl]-benzenesulfonamide] | > 10 µM | 7.51 µM | 1.62 µM | – |
| O=C(Nc1ccc(C(F)(F)F)cc1)Nc1cccc(-c2nn3c(c2-c2ccncc2)SCC3)c1 [compound 5, 1-[3-(7-pyridin-4-yl-2,3-dihydro-pyrazolo[5,1-b]thiazol-6-yl)-phenyl]-3-(4-trifluoromethyl-phenyl)urea] | 2.63 µM | 0.43 µM | – | 0.6 µM |
| O=C(Nc1ccc(Cl)cc1)Nc1cccc(-c2nn3c(c2-c2ccncc2)SCC3)c1 [compound 6, 1-(4-chloro-phenyl)-3-[3-(7-pyridin-4-yl-2,3-dihydro-pyrazolo[5,1-b]thiazol-6-yl)-phenyl]-urea] | 5.95 µM | 2.33 µM | 1.38 µM | – |
| Oc1cccc(-c2nn3c(c2-c2ccncc2)SCC3)c1 [compound 7, 3-(7-pyridin-4-yl-2,3-dihydro-pyrazolo[5,1-b]thiazol-6-yl)-phenol] | > 10 µM | 0.95 µM | 0.75 µM | – |
| Oc1cccc(-c2nn3c(c2-c2ccncc2)SCCC3)c1 [compound 8, 3-(3-pyridin-4-yl-6,7-dihydro-5H-pyrazolo[5,1-b][1,3]thiazin-2-yl)-phenol] | > 10 µM | 1.51 µM | – | 2.04 µM |
| O=S(=O)(Nc1cccc(-c2nn3c(c2-c2ccncc2)SCCC3)c1)c1cc(F)ccc1F [compound 9, 2,5-difluoro-N-[3-(3-pyridin-4-yl-6,7-dihydro-5H-pyrazolo[5,1-b][1,3]thiazin-2-yl)-phenyl]-benzenesulfonamide] | 4.29 µM | 1.28 µM | 0.46 µM | – |
| O=S1(=O)CCn2nc(-c3cccc(O)c3)c(-c3ccncc3)c21 [compound 10, 3-(1,1-dioxo-7-pyridin-4-yl-2,3-dihydro-pyrazolo[5,1-b]thiazol-6-yl)-phenol] | > 10 µM | 1.98 µM | 0.62 µM | – |
| O=S(=O)(Nc1cccc(-c2nn3c(c2-c2ccncc2)SCC3)c1)c1cc(F)ccc1F [compound 11, 2,5-difluoro-N-[3-(7-pyridin-4-yl-2,3-dihydro-pyrazolo[5,1-b]thiazol-6-yl)-phenyl]-benzenesulfonamide] | > 10 µM | 0.66 µM | 0.26 µM | – |
| O=C(Cc1ccc(C(F)(F)F)cc1)Nc1cccc(-c2nn3c(c2-c2ccncc2)SCCC3)c1 [compound 12, N-[3-(3-pyridin-4-yl-6,7-dihydro-5H-pyrazolo[5,1-b][1,3]thiazin-2-yl)-phenyl]-2-(4-trifluoromethyl-phenyl)-acetamide] | > 10 µM | 3.88 µM | 6.39 µM | – |
| O=S(=O)(Nc1cccc(-c2nn3c(c2-c2ccncc2)SCCC3)c1)c1ccco1 [compound 13, furan-2-sulfonic acid [3-(3-pyridin-4-yl-6,7-dihydro-5H-pyrazolo[5,1-b][1,3]thiazin-2-yl)-phenyl]-amide] | > 10 µM | 9.28 µM | 3.03 µM | – |
| O=S(=O)(Nc1cccc(-c2nn3c(c2-c2ccncc2)SCCC3)c1)c1ccsc1 [compound 14, thiophene-3-sulfonic acid [3-(3-pyridin-4-yl-6,7-dihydro-5H-pyrazolo[5,1-b][1,3]-thiazin-2-yl)-phenyl]-amide] | > 10 µM | 7.07 µM | 4.69 µM | – |
| CC(C)(C)c1ccc(NC(=O)c2cccc(-c3nn4c(c3-c3ccncc3)SCC4)c2)cc1 [compound 15, N-(4-tert-butyl-phenyl)-3-(7-pyridin-4-yl-2,3-dihydro-pyrazolo[5,1-b]thiazol-6-yl)-benzamide] | 3.09 µM | 0.68 µM | 0.48 µM | – |
| NC(=O)c1csc2c(-c3ccncc3)c(-c3cccc(NS(=O)(=O)c4cc(F)ccc4F)c3)nn12 [compound 17, 6-[3-(2,5-difluoro-benzenesulfonylamino)-phenyl]-7-pyridin-4-yl-pyrazolo[5,1-b]thiazole-3-carboxylic acid amide] | > 10 µM | 1.34 µM | 1.17 µM | – |
| CC(C)(C)c1ccc(NC(=O)Nc2cccc(-c3nn4c(c3-c3ccncc3)SCC4)c2)cc1 [compound 18, 1-(4-tert-butyl-phenyl)-3-[3-(7-pyridin-4-yl-2,3-dihydro-pyrazolo[5,1-b]thiazol-6-yl)-phenyl]-urea] | > 10 µM | 2.16 µM | 2.29 µM | – |
| O=C(Nc1ccc(C(F)(F)F)cc1)Nc1cccc(-c2nn3c(c2-c2ccncc2)[S+]([O-])CC3)c1 (stereo not drawn) [compound 19, 1-[3-(1-oxo-7-pyridin-4-yl-2,3-dihydro-pyrazolo[5,1-b]thiazol-6-yl)-phenyl]-3-(4-trifluoromethyl-phenyl)-urea] | > 10 µM | 7.68 µM | 4.69 µM | – |
| Oc1cccc(-c2nn3ccsc3c2-c2ccncc2)c1 [compound 20, 3-(7-pyridin-4-yl-pyrazolo[5,1-b]thiazol-6-yl)-phenol] | > 10 µM | 1.17 µM | 0.36 µM | – |
| O=S(=O)(Nc1cccc(-c2nn3ccsc3c2-c2ccncc2)c1)c1cc(F)ccc1F [compound 21, 2,5-difluoro-N-[3-(7-pyridin-4-yl-pyrazolo[5,1-b]thiazol-6-yl)-phenyl]-benzenesulfonamide] | > 10 µM | 3.13 µM | 0.21 µM | – |
| O=C(Nc1ccc(C(F)(F)F)cc1)Nc1cccc(-c2nn3ccsc3c2-c2ccncc2)c1 [compound 22, 1-[3-(7-pyridin-4-yl-pyrazolo[5,1-b]thiazol-6-yl)-phenyl]-3-(4-trifluoromethyl-phenyl)-urea] | 5.41 µM | 1.03 µM | 0.44 µM | – |
| O=S(=O)(Nc1ccc(F)c(-c2nn3c(c2-c2ccncc2)SCC3)c1F)c1cc(F)ccc1F [compound 23, N-[2,4-difluoro-3-(7-pyridin-4-yl-2,3-dihydro-pyrazolo[5,1-b]thiazol-6-yl)-phenyl]-2,5-difluoro-benzenesulfonamide] | > 10 µM | 0.29 µM | 0.02 µM | – |
| O=C(Nc1ccc(C(F)(F)F)cc1)c1cccc(-c2nn3c(c2-c2ccncc2)SCC3)c1 [compound 24, 3-(7-pyridin-4-yl-2,3-dihydro-pyrazolo[5,1-b]thiazol-6-yl)-N-(4-trifluoromethyl-phenyl)-benzamide] | 5.09 µM | 1.23 µM | 1.46 µM | – |
